Measurements reported in paper PMC11187126, “Structure and dynamics of the pyroglutamylated RF-amide peptide QRFP receptor GPR103” (Nature Communications, 2024).
Where two headings read alike, the source gives them in different places. No end group written: not given here.

Molecular target: T1, GPR103 F11N-termA (Homo sapiens, UniProt Q96P65, F11A)
T1 construct: we used human full-length QRFPR-encoding plasmids; expressed in transfected cells; host or cells: HEK293 cells, pCAGGS vector
T1 sequence (Q96P65 1-431 F11A): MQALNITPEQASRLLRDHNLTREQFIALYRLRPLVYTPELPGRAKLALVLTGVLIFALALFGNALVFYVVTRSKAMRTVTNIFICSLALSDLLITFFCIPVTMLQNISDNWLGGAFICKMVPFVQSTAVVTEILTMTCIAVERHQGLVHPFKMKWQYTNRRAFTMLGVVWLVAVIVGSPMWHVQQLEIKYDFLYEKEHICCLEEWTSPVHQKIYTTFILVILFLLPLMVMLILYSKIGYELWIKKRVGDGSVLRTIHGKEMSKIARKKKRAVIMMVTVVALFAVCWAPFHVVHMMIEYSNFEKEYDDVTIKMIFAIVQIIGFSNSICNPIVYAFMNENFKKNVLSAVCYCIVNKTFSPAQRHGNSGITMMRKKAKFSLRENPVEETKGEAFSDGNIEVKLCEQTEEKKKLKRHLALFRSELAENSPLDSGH
Assay: TGFα shedding assay; Exp. level WT (1:10)
Format: cell-based
Procedure: For the TGFα shedding assay and the flow cytometry analysis, we used human full-length QRFPR-encoding plasmids. Specifically, GPR103 was N-terminally modified with an HA signal sequence followed by a FLAG epitope and then a flexible linker ([…]; the FLAG epitope is underlined) and inserted into the pCAGGS vector. Plasmid encoding GPR103 mutants were generated using Quickchange Site-Directed Mutagensis kit (Agilent).
The TGFα shedding assay was performed as described previously with minor modifications. Plasmid transfection was performed in a 6-well plate with a mixture of 500 ng (per well in a 6-well plate) AP-TGFα-encoding plasmid and 200 ng GPR103-encoding plasmid. After 1-day culture, the transfected cells were harvested by trypsinization, pelleted by centrifugation at 190 × g for 5 min, and washed once with 5 mM HEPES (pH 7.4)-containing Hank’s Balanced Salt Solution (HBSS). After centrifugation, the cells were resuspended in 8 mL of the HEPES-containing HBSS. The cell suspension was seeded in a 96-well culture plate (cell plate) at a volume of 90 μL (per well hereafter) and incubated in a 37 °C incubator with 5% CO2 for 30 min. […] After spinning the cell plates at 190 × g for 2 min, 80 μL of conditioned media was transferred to an empty 96-well plate (conditioned media (CM) plate). Then, 80 μL of AP reaction solution (10 mM p-nitrophenylphosphate (p-NPP), 120 mM Tris-HCl (pH 9.5), 40 mM NaCl, and 10 mM MgCl2) was dispensed into the cell plates and the CM plates. Absorbance at 405 nm of the plates was measured using a microplate reader (SpectraMax 340 PC384, Molecular Devices) before and after 1-h incubation at room temperature. Ligand-induced AP-TGFα release was calculated by subtracting spontaneous AP-TGFα release signal from ligand-induced AP-TGFα release signal. The AP-TGFα release signals were fitted to a four-parameter sigmoidal concentration–response curve, using the Prism 10 software (GraphPad Prism). For each replicate experiment, the pEC50 parameter (negative logarithmic values of EC50 values) of the individual GPR103 mutants were normalized to that of the wild-type GPR103 performed in parallel, and resulting ∆pEC50 values were used to denote ligand response activity of the mutants. […]
Exp. le vel: WT (1:5 0)Exp. le vel: WT (1:5 0)Exp. le vel: WT (1:5 0)Exp. le vel: WT (1:2 0)Exp. le vel: WT (1:2 0)Exp. le vel: WT (1:1 0) […]
L1 4N - t e r mA F2 5N - t e r mA I 2 6N - t e r mA Y 2 9N - t e r mA C 9 82 .5 7A T10 22 .6 1A Exp . l eve l: WT (1 :5)Exp . l evel : >WT (1 :1)Exp. le vel: WT (1:2 0)Exp. le vel: WT (1:2 0)Exp. le vel: WT (1:5 0)Exp . l eve l: WT (1 :1) […]
Exp. le vel: WT (1:1 0)Exp. le vel: WT (1:2 0) C 1 1 83 .2 5AExp. le vel: WT (1:5 0)Exp. le vel: WT (1:5 0)Exp. le vel: WT (1:2 0)Exp . l eve l: WT (1 :5) […]
Exp. le vel: WT (1:5 0)Exp. le vel: WT (1:1 0)Exp. le vel: WT (1:5 0) E203ECL2AExp . l evel : >WT (1 :1)Exp. le vel: WT (1:5 0)Exp. le vel: WT (1:5 0) […]
Exp . l eve l: WT (1 :1) F28Exp. le vel: WT (1:5 0) C 2 8 56 .4 7AExp. le vel: WT (1:2 0) WExp. le vel: WT (1:2 0) F28Exp. le vel: WT (1:5 0)Exp . l evel : >WT (1 :1) […]
Exp. le vel: WT (1:5 0)Exp. le vel: WT (1:5 0) C 3 2 77 .4 8AExp . l eve l: WT (1 :5)Exp . l evel : >WT (1 :1)Exp . l evel : >WT (1 :1) […]
Suppl eme nt ary Figure 1 | Mutational analysis of GPR103. […]
mutants. Data are presented as mean values ± SEM, normally n=3-5; dots), each performed in triplicate. b-d Cell-surface expression (b) and QRFP26-in-duced activation of GPR103 (c, d) were analyzed by the flow cytometry and the TGFα shedding assay, respectively. From the concentration–response curves (a), Emax (c) and ΔpEC50 (d) values relative to the wild type were calculated. Colors in the mutant bars indicate an expression level matching to that of titrated wild type. Statistical analyses were performed using the ordinary one-way ANOVA followed by Dunnett tests with the expression-matched […]

Emax (Exp. #1): 103.83 % WT
Emax (Exp. #2): 92.88 % WT
Emax (Exp. #3): 104.15 % WT
Emax (mean, read-out: Emax): 100%
EC50 (n = 3): 178 nM
Emax (n = 3, read-out: Emax): 104 ± 3%
Substance: TSGPLGNLAEELNGYSRKKGGFSFRF-NH2 [QRFP26]
